Measurements: patent US9365489B2, “Nitrooxy alkanoic acids and derivatives thereof in feed for reducing methane emission in ruminants, and/or to improve ruminant performance” (priority 2009, dated 2016)
Marks after values point to notes of the source that are not given here.

System: rumen fermentation parameters
Experiment: In vivo test: rumen volatile fatty acids and ammonia nitrogen
Settings: rumen of sheep; for iso-valeric (VFA profile): control 1.60; for Valeric (VFA profile): control 1.69; for Butiric (VFA profile): control 3.69; for C2/C3 (acetate to propionate ratio): control 4.59; for iso-butiric (VFA profile): control 6.73; for Propionic (VFA profile): control 15.7; for NH3—N (ammonia Nitrogen concentration): control 42.5; for Acetic (VFA profile): control 70.6; for Total volatile fatty acid concentration: control 111.3
Text: The experimental design consisted of a cross-over design with 2 sheep per treatment in each period. The trial consisted in 3 consecutive periods of: 14 days of adaptation to the dose plus three consecutive days of methane measurements in chambers. This 14 days adaptation phase was established as the period necessary for wash out between different doses assayed in consecutive periods. During the last two days of methane measurements in chambers rumen contents samples were collected two hours after the morning feeding, sub sampled and immediately frozen prior DNA extraction and determination of volatile fatty acids and ammonia nitrogen concentration. Experimental animals were randomly allocated in three sub-groups of 2 animals and were assigned one of the three treatments (control, dose 1 and dose 2). The 3 sub-groups started the adaptation period with a gap of three days so they had the same number of adaptation days prior to methane measurement in the chambers. Each animal was held in cages with constant access to fresh water. The diet provided to the animals consisted of alfalfa hay chopped at 15 to 20 cm and concentrate in a proportion 1:1 at approximately 1.1 times the energy requirements maintenance level (Prieto et al, 1990) plus mineral-vitamin supplement. Fresh matter intake was monitored daily for each animal throughout the trial. The diet was provided to animals in two equal meals at 9.00 h and 14.00 h.
The additive was provided twice a day through the ruminal cannula at the same time as the diet. The corresponding amount to each dose was added into 10 grams of grounded concentrate and wrapped in cellulose paper immediately before it was placed in the rumen. In order to avoid the volatility of the active molecule, both additives were kept in a cold room at 4° C. where the daily process of dispensing it in the cellulose bags was carried out.
The doses were 50 (dose 1) and 500 (dose 2) mg/animal per day. The higher dose was reached after 3 days of gradual increases (50, 200 and 500 mg), so the whole adaptation period was consequently extended for 3 more days.
Volatile fatty acids were analysed by gas chromatography and ammonia N concentration by colorimetry according to (Cantalapiedra-Híjar et al. Journal of Animal Science. 87, 622-631, 2009).
Individual methane emissions, VFA profiles, ratio of acetate to propionate, ammonia N concentration, and log10 transformations of concentration of total bacteria, total protozoa and methanogenic archaea were analyzed for the following effects: additive dose, day of measurement, and their interaction using a repeated measures analysis of variance under the cross-over design arrangement of the experiment. The standard error of the mean (SEM) was computed for each analysis. No significant effect of the measuring day or its interaction with additive dose was detected in either experiments, so only the effect of the dose is included in the tables. Means were further compared using a least significant difference (LSD) procedure. The SPSS for Windows, version 14.0 (2005; SPSS Inc., Chicago, Ill.) was used for data entry and statistical analysis.

CCOC(=O)CCO[N+](=O)[O-] [Ethyl-3-nitrooxy propionate]
iso-valeric (VFA profile) (Dose 1 (50 mg/animal per day)): 1.50 mol/100 mol
Valeric (VFA profile) (Dose 1 (50 mg/animal per day)): 1.55^a mol/100 mol
Butiric (VFA profile) (Dose 1 (50 mg/animal per day)): 3.50 mol/100 mol
C2/C3 (acetate to propionate ratio) (Dose 1 (50 mg/animal per day)): 4.26^ab
iso-butiric (VFA profile) (Dose 1 (50 mg/animal per day)): 5.57^a mol/100 mol
Propionic (VFA profile) (Dose 1 (50 mg/animal per day)): 16.8^ab mol/100 mol
NH3—N (ammonia Nitrogen concentration) (Dose 1 (50 mg/animal per day)): 40.5 mg/100 ml
Acetic (VFA profile) (Dose 1 (50 mg/animal per day)): 71.0^a mol/100 mol
Total volatile fatty acid concentration (Dose 1 (50 mg/animal per day)): 123.3^a mmol/l
iso-valeric (VFA profile) (Dose 2 (500 mg/animal per day)): 1.76 mol/100 mol
Valeric (VFA profile) (Dose 2 (500 mg/animal per day)): 2.42^b mol/100 mol
Butiric (VFA profile) (Dose 2 (500 mg/animal per day)): 3.47 mol/100 mol
C2/C3 (acetate to propionate ratio) (Dose 2 (500 mg/animal per day)): 3.57^b
iso-butiric (VFA profile) (Dose 2 (500 mg/animal per day)): 8.06^b mol/100 mol
Propionic (VFA profile) (Dose 2 (500 mg/animal per day)): 18.8^b mol/100 mol
NH3—N (ammonia Nitrogen concentration) (Dose 2 (500 mg/animal per day)): 40.1 mg/100 ml
Acetic (VFA profile) (Dose 2 (500 mg/animal per day)): 65.5^b mol/100 mol
Total volatile fatty acid concentration (Dose 2 (500 mg/animal per day)): 104.1^b mmol/l
